“And” between values parts separate entries of the source, which are not always exact repeats. Equal entries are not always repeated.

The target of series [1] is T1, MAPRE1 in the presence of FKBP12 (Homo sapiens, UniProt P62942+Q15691).
T1 construct: His-tag (N)
Kind of series: Spectral shift target engagement assay, binding to MAPRE1 in the presence of 10 μM FKBP12 (ternary). From the text:
Our method of choice is the spectral shift method, which monitors binding events on the target isothermally and in equilibrium via an environment-sensitive near-infrared fluorophore. In the case of target engagement, either the proximity of the ligand towards the dye or structural changes occurring in the target as a result of binding lead to a change in the chemical environment of the fluorophore. Those changes affect the physiochemical properties of the reporter fluorophore and translate into either blue or red shifts (or peak broadening) of emission peaks upon ligand binding, which can be sensitively monitored by simultaneously recording the fluorescence at two wavelengths (i.e., at 650 nm and 670 nm). Calculating the ratio between the two fluorescence channels then allows to monitor subtle emission shifts that occur as a result of target engagement. Affinity measurements can then be performed by recording the spectral shift as a function of ligand concentration.
Binding study through MAPRE1: MAPRE1 was labeled via lysines using an NHS-conjugated dye. The final concentration of MAPRE1NHS (referring to [Ttot]) was 5 nM. Compounds could be titrated up to a concentration of 200 μM (referring to [Ltot]). […] However more accuracy could only be achieved at higher ligand concentrations—ideally at full target saturation. However, this was experimentally infeasible due to assay conditions (i.e., the requirement of maintaining a certain DMSO concentration or avoiding solubility issues of the ligand). Although the determined KT,1 values of binding to MAPRE1 are only approximations, their relative ranking reflects the underlying differences in the affinity of the ligands L to MAPRE1. Performing these experiments in duplicates confirmed the high signal-to-noise ratio, i.e., there was no significant deviation between the two curves, indicating a high accuracy of the interpolated EC50 values. Due to the low [Ttot] = 5 nM, this value coincides with KT,1 (1.8 mM − 0.005 mM/2 ≈ 1.8 mM). […] Consequently, KT,2 corresponds to 173 nM and not 177.5 nM.
His-tagged FKBP12 was labeled using the His-Tag Labeling Kit RED-tris-NTA 2nd Generation (MO-L018; NanoTemper Technologies GmbH). The affinity between NTA dye and the His-tag of FKBP12 was determined as 7 nM. MAPRE1 was labeled using the Protein Labeling Kit RED-NHS 2nd Generation (MO-L011; NanoTemper Technologies GmbH). In brief, 10 µM of MAPRE1 was incubated with a 3-fold molar excess of fluorophore for 30 min. The unreacted fluorophore was removed by performing a size exclusion purification (B-column). Collecting the protein fraction yielded 1.8 µM labeled MAPRE1, with a degree of labeling of 0.8, as determined on a Nanodrop.
A 1:2 dilution series of all compounds (starting from the 10 mM stock concentration) was prepared in pure DMSO. Each concentration was diluted 25-fold with assay buffer (20 mM HEPES, pH 7.4, 150 mM NaCl, 1 mM DTT (all from Carl Roth, Karlsruhe, Germany), and 0.01% Pluronic F-127 (Sigma Aldrich, Taufkirchen, Germany)). Next, 10 µL from each of the prepared ligand dilutions was transferred into an empty well on a Dianthus Microwell Plate (DI-P001A). Another 10 µL of 2-fold concentrated labeled protein (either in the absence or the presence of 20 µM counter protein, both in assay buffer then yielded the final assay concentrations. Interaction measurements were prepared in duplicates for each condition. For binary interactions of compounds with MAPRE1, a final target concentration of 5 nM and a highest ligand concentration of 50 µM was prepared. For ternary interactions of compounds and MAPRE1 in the presence of 10 µM unlabeled FKBP12, the highest ligand concentration was increased to 200 µM, the highest concentration achievable while maintaining a constant 2% DMSO concentration. For all interactions measured via FKBP12, the target was prepared at a final concentration of 40 nM, supplemented with 5 nM NTA fluorophore. […]

The nature of series [2]: Precipitation seen in the spectral shift titration. Conditions: assay buffer, high concentrations. The class given is physicochemical. On the procedure:
Therefore, measurements from the highest concentration samples had to be removed, which impaired the determination of the interpolation curve. Moreover, the signal is much smaller compared to the other studied ligands. […] This is a deviation from the theoretically found true value of 1985 nM − 2.5 nM = 1982.5 nM. The KT,2 is 2% below the EC50 value of the %Tbound, ternary curve. The apparent cooperativity of 460,000 nM/1985 nM = 232 is still below the cooperativity α of 460,000 nM/1941 = 237 (Figure 10b).
A 1:2 dilution series of all compounds (starting from the 10 mM stock concentration) was prepared in pure DMSO. Each concentration was diluted 25-fold with assay buffer (20 mM HEPES, pH 7.4, 150 mM NaCl, 1 mM DTT (all from Carl Roth, Karlsruhe, Germany), and 0.01% Pluronic F-127 (Sigma Aldrich, Taufkirchen, Germany)). Next, 10 µL from each of the prepared ligand dilutions was transferred into an empty well on a Dianthus Microwell Plate (DI-P001A). […] For all interactions measured via FKBP12, the target was prepared at a final concentration of 40 nM, supplemented with 5 nM NTA fluorophore. […] The resulting spectral shift signal (Ratio 670 nm/650 nm) was plotted against compound concentration and analyzed in the DI.Screening Analysis software, version 2.1.1.

T1 sequence (Q15691 whole entry): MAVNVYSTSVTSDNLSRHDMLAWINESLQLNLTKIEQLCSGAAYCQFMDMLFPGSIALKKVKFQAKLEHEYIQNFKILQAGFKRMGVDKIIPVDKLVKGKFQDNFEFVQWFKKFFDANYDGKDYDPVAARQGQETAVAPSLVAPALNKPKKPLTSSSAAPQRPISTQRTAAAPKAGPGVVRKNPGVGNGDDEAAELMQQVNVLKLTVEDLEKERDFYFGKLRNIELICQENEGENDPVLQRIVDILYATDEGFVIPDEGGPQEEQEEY
T1 sequence (P62942 whole entry): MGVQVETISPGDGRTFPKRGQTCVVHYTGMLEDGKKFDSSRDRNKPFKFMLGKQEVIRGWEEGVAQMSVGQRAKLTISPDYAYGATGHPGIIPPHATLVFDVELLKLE

With `C=C1CCN2C(=O)COc3cccc(c3)C(CCc3ccc(OC)c(OC)c3)OC(=O)C3CCCCN3C(=O)C(=O)C(C)(C)COC(=O)C(CN)NC(=O)C2C1` (stereo not drawn) [R,S-SLF-7], in series [1] (5 nM MAPRE1-NHS, 10 μM FKBP12, read-out: EC50 of the %Tbound, ternary curve), the EC50 came to 1990 nM. The “Ratio [Ctot]/KC,1” value in series [1] ([Ctot] = 10 μM FKBP12) was found to be 60. The “100 × (EC50 %Tbound ternary − 0.5 [Ttot] − KT,2)/KT,2” value in series [1] (difference between EC50 of the %Tbound, ternary curve and KT,2, [Ttot] = 5 nM) was 2% and 2.1%. Besides, the “Intrinsic cooperativity α” value in series [1] (from KC,1, KT,1 and EC50 of the %Tbound, ternary curve with the mathematical model, [Ctot] = 10,000 nM, [Ttot] = 5 nM) is given as 237. Besides, in series [1] (ternary Kd, model-based ([CL] at [Ltot] = EC50), read-out: KT,2), the Kd was 1940 nM. For the same molecule, the precipitation entry in series [2] is reported as “precipitation at high concentrations”.

As a reminder, the EC50 is the concentration giving half of the maximal effect.

The values are drawn from paper PMC11989212, “Experimental Conditions to Retrieve Intrinsic Cooperativity α Directly from Single Binding Assay Data Exemplified by the Ternary Complex Formation of FKBP12, MAPRE1 and Macrocyclic Molecular Glues” (International Journal of Molecular Sciences, 2025).
